Measured values: patent publication US6914045B2, “Glycopeptide antibiotics” (Wyeth Holdings Corporation, priority 2001, dated 2005)
≈ marks a conversion by molar mass, not a printed value.

Legend:
Assay in all cases: in vitro antibacterial evaluation, MIC by broth dilution
Assay type in all cases: cell-based
Enterococcus sp. = conditions: broth dilution, 18 hours at 35° C.
Summary of the method: (§1)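 MIC = lowest antibiotic concentration preventing visible growth; inoculum 5×10^5 CFU/mL; drug range 64-0.06 μg/mL; Muller-Hinton II […]; NCCLS M7-A2 guidance.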

Staphylococcus sp. = conditions: broth dilution, 18 hours at 35° C.; for MIC Staphylococcus aureus (GC 1131): strain GC 1131
Summary of the method: as §1

Escherichia coli = system: Escherichia coli
Summary of the method: as §1

Streptococcus sp. = conditions: broth dilution, 18 hours at 35° C.
Summary of the method: as §1

MIC Enterococcus avium (GC 4558) (Enterococcus sp.; Enterococcus avium (GC 4558)): 8 µg/mL (≈ 5.54 µM) | MIC Enterococcus faecalis (ATCC 29212) (Enterococcus sp.; Enterococcus faecalis (ATCC 29212)): 8 µg/mL (≈ 5.54 µM) | MIC Enterococcus faecalis (GC 2242) (Enterococcus sp.; Enterococcus faecalis (GC 2242)): 4 µg/mL (≈ 2.77 µM) | MIC Enterococcus faecalis (GC 2691) (Enterococcus sp.; Enterococcus faecalis (GC 2691)): 4 µg/mL (≈ 2.77 µM) | MIC Enterococcus faecalis (GC 3059) (Enterococcus sp.; Enterococcus faecalis (GC 3059)): 8 µg/mL (≈ 5.54 µM) | MIC Enterococcus faecalis (GC 4552) (Enterococcus sp.; Enterococcus faecalis (GC 4552)): 8 µg/mL (≈ 5.54 µM) | MIC Enterococcus faecalis (GC 4553) (Enterococcus sp.; Enterococcus faecalis (GC 4553)): 8 µg/mL (≈ 5.54 µM) | MIC Enterococcus faecalis (GC 4554) (Enterococcus sp.; Enterococcus faecalis (GC 4554)): 8 µg/mL (≈ 5.54 µM) | MIC Enterococcus faecalis (GC 6189) (Enterococcus sp.; Enterococcus faecalis (GC 6189)): 8 µg/mL (≈ 5.54 µM) | MIC Enterococcus faecium (GC 2243) (Enterococcus sp.; Enterococcus faecium (GC 2243)): 8 µg/mL (≈ 5.54 µM) | MIC Enterococcus faecium (GC 4556) (Enterococcus sp.; Enterococcus faecium (GC 4556)): 8 µg/mL (≈ 5.54 µM) | MIC Enterococcus faecium (GC 4557) (Enterococcus sp.; Enterococcus faecium (GC 4557)): 4 µg/mL (≈ 2.77 µM) | MIC Enterococcus faecalis (ATCC 29212) (Enterococcus sp.; strain ATCC 29212): 8 µg/mL (≈ 5.54 µM) | MIC Enterococcus faecalis (GC 2242) (Enterococcus sp.; strain GC 2242): 4 µg/mL (≈ 2.77 µM) | MIC Enterococcus faecium (GC 2243) (Enterococcus sp.; strain GC 2243): 8 µg/mL (≈ 5.54 µM) | MIC Enterococcus faecalis (GC 2691) (Enterococcus sp.; strain GC 2691): 4 µg/mL (≈ 2.77 µM) | MIC Enterococcus faecalis (GC 3059) (Enterococcus sp.; strain GC 3059): 8 µg/mL (≈ 5.54 µM) | MIC Enterococcus faecalis (GC 4552) (Enterococcus sp.; strain GC 4552): 8 µg/mL (≈ 5.54 µM) | MIC Enterococcus faecalis (GC 4553) (Enterococcus sp.; strain GC 4553): 8 µg/mL (≈ 5.54 µM) | MIC Enterococcus faecalis (GC 4554) (Enterococcus sp.; strain GC 4554): 8 µg/mL (≈ 5.54 µM) | MIC Enterococcus faecium (GC 4556) (Enterococcus sp.; strain GC 4556): 8 µg/mL (≈ 5.54 µM) | MIC Enterococcus faecium (GC 4557) (Enterococcus sp.; strain GC 4557): 4 µg/mL (≈ 2.77 µM) | MIC Enterococcus avium (GC 4558) (Enterococcus sp.; strain GC 4558): 8 µg/mL (≈ 5.54 µM) | MIC Enterococcus faecalis (GC 6189) (Enterococcus sp.; strain GC 6189): 8 µg/mL (≈ 5.54 µM) | MIC Staphylococcus aureus (GC 1131) (Staphylococcus sp.; inoculum 5×10^5 CFU/mL): 4 µg/mL (≈ 2.77 µM) | MIC Staphylococcus aureus (ATCC 29213) (Staphylococcus sp.; strain ATCC 29213): 2 µg/mL (≈ 1.39 µM) | MIC Staphylococcus aureus (GC 1131) (Staphylococcus sp.): 4 µg/mL (≈ 2.77 µM) | MIC Staphylococcus aureus (GC 3051) (Staphylococcus sp.; strain GC 3051): 2 µg/mL (≈ 1.39 µM) | MIC Staphylococcus aureus (GC 3053) (Staphylococcus sp.; strain GC 3053): 8 µg/mL (≈ 5.54 µM) | MIC Staphylococcus aureus (GC 4541) (Staphylococcus sp.; strain GC 4541): 2 µg/mL (≈ 1.39 µM) | MIC Staphylococcus aureus (GC 4542) (Staphylococcus sp.; strain GC 4542): 2 µg/mL (≈ 1.39 µM) | MIC Staphylococcus aureus-SMITH (GC 4543) (Staphylococcus sp.; strain GC 4543): 2 µg/mL (≈ 1.39 µM) | MIC Staphylococcus aureus (GC 4544) (Staphylococcus sp.; strain GC 4544): 2 µg/mL (≈ 1.39 µM) | MIC Staphylococcus aureus (GC 4545) (Staphylococcus sp.; strain GC 4545): 2 µg/mL (≈ 1.39 µM) | MIC Coagulase Negative Staphylococcus (GC 4547) (Staphylococcus sp.; strain GC 4547): 2 µg/mL (≈ 1.39 µM) | MIC Coagulase Negative Staphylococcus (GC 4548) (Staphylococcus sp.; strain GC 4548): 1 µg/mL (≈ 0.693 µM) | MIC Coagulase Negative Staphylococcus (GC 4549) (Staphylococcus sp.; strain GC 4549): 1 µg/mL (≈ 0.693 µM) | MIC Coagulase Negative Staphylococcus (GC 4551) (Staphylococcus sp.; strain GC 4551): 2 µg/mL (≈ 1.39 µM) | MIC Coagulase Negative Staphylococcus (GC 6257) (Staphylococcus sp.; strain GC 6257): 1 µg/mL (≈ 0.693 µM) | MIC Staphylococcus aureus-SMITH (GC 4543) (Staphylococcus sp.; strain SMITH GC 4543): 2 µg/mL (≈ 1.39 µM) | MIC Escherichia coli (ATCC 25922) (Escherichia coli; strain ATCC 25922, 18 hours at 35° C.): >64 µg/mL | MIC Escherichia coli (GC 4559) (Escherichia coli; strain GC 4559, 18 hours at 35° C.): 32 µg/mL (≈ 22.2 µM) | MIC Escherichia coli (GC 4560) (Escherichia coli; strain GC 4560, 18 hours at 35° C.): 1 µg/mL (≈ 0.693 µM) | MIC Streptococcus agalactiae (GC 4564) (Streptococcus sp.; Streptococcus agalactiae (GC 4564)): 1 µg/mL (≈ 0.693 µM) | MIC Streptococcus pneumoniae (ATCC 6301) (Streptococcus sp.; Streptococcus pneumoniae (ATCC 6301)): 0.25 µg/mL (≈ 0.173 µM) | MIC Streptococcus pneumoniae (GC 1894) (Streptococcus sp.; Streptococcus pneumoniae (GC 1894)): 0.12 µg/mL (≈ 0.0831 µM) | MIC Streptococcus pneumoniae (GC 4565) (Streptococcus sp.; Streptococcus pneumoniae (GC 4565)): 0.25 µg/mL (≈ 0.173 µM) | MIC Streptococcus pyogenes (GC 4563) (Streptococcus sp.; Streptococcus pyogenes (GC 4563)): 0.5 µg/mL (≈ 0.346 µM) | MIC Streptococcus pneumoniae (ATCC 6301) (Streptococcus sp.; strain ATCC 6301): 0.25 µg/mL (≈ 0.173 µM) | MIC Streptococcus pneumoniae (GC 1894) (Streptococcus sp.; strain GC 1894): 0.12 µg/mL (≈ 0.0831 µM) | MIC Streptococcus pyogenes (GC 4563) (Streptococcus sp.; strain GC 4563): 0.5 µg/mL (≈ 0.346 µM) | MIC Streptococcus agalactiae (GC 4564) (Streptococcus sp.; strain GC 4564): 1 µg/mL (≈ 0.693 µM) | MIC Streptococcus pneumoniae (GC 4565) (Streptococcus sp.; strain GC 4565): 0.25 µg/mL (≈ 0.173 µM)
Structure (SMILES): COc1cc(OC)cc(C2OCC3OC(OC4C(CO)OC(Oc5ccc(CC6NC(=O)C(C(C)c7ccccc7)NC(=O)CNC(=O)C(CO)NC(=O)C(C(O)C7CNC(=N)N7C7OC(CO)C(O)C(O)C7O)NC(=O)C(C(O)C7CNC(=N)N7)NC6=O)cc5)C(O)C4O)C(O)C(O)C3O2)c1 (stereo not drawn) [Example 150]
MIC Staphylococcus haemolyticus (GC 4546) (Staphylococcus sp.; strain GC 4546): 1 µg/mL (≈ 0.693 µM)
